Test results: patent publication US20120088809A1, “1-(2-ALKYL-2,3-DIHYDRO-BENZOFURAN-4-YL)-PYRROLIDIN-3-YLAMINE ACYL COMPOUNDS” (priority 2009, published 2012)

Assays:
[1] = molecular target: T1, recombinant human-MT1 receptor (Homo sapiens, UniProt P48039); test: In vitro MT1 screening (AequoScreen aequorin luminescence, agonism); type: cell-based; settings: percentage of activity relative to the reference agonist at the EC100 concentration
T1 construct: expressed in transfected cells; host or cells: unnamed cell line co-expressing mitochondrial apoaequorin and Gα16
T1 sequence (P48039 whole entry): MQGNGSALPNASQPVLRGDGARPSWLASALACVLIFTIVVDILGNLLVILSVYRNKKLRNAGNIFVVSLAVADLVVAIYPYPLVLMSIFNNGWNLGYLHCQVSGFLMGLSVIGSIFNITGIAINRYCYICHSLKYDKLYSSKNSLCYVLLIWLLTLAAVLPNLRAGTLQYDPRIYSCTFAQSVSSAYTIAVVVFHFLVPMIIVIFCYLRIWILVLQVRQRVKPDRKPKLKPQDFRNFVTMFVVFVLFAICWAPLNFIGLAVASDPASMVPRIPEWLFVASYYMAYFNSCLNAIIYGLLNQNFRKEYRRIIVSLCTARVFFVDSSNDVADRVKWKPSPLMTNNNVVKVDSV
From the text: To proceed with compound screening over MT1 receptor, a cell line characterised by a stable overexpression of recombinant human-MT1 receptor was used. This line co-expresses mitochondrial apoaequorin and subunit Gα16.
Subunit Gα16 belongs to GPCR superfamily, in which intracellular signal transduction is produced via phospholipase (PLC). Activation of PLC produces an increment of inositol-triphosphate levels and intracellular calcium levels. This increment in calcium levels is, therefore, independent and full compatible with the signal transduction of MT1 receptor.
After binding to calcium, aequorin carries out the oxidation of colenterazine to colenteramide, a luminescent reaction.
Assay protocol for agonist screening consists in an overnight incubation of cells and colenterazine, being performed by an AequoScreen™ system instrument, PerkinElmer, USA. After that this mixture was injected over a plate that contains the solution of the compounds to screen and luminescence was immediately read. Only in case of antagonism screening, after 15-30 min of the first injection the reference agonist was added in the same well, and then luminescence was measured.
Agonist activity was calculated as percentage of activity relative to the reference agonist at the EC100 concentration.

[2] = Plasma drug levels after oral administration; type: in vivo; settings: male Sprague-Dawley rats; for Ratio 15/60 (plasma level 15 min / 60 min): oral 3 mg/kg; for concentration at 15 min / concentration at 60 min: rat, plasma; for concentration at 15 min: 15 min after oral administration of 3 mg/kg; for concentration at 60 min: 60 min after oral administration of 3 mg/kg
Procedure: The compounds of formula I show the surprising advantage of being maintained at more sustained plasma levels and thus being long acting. This can be evidenced, for instance, by measuring the plasma levels after oral administration to rats at 15 and 60 min after oral administration, resulting in lower ratio values for the compounds of the present invention. Thus the compounds of formula I, characterized in that R2 is an alkyl radical show more sustained plasma levels than prior art compounds (EP1189900B1), wherein R2 is hydrogen. […] Consequently, the present compounds allow for a more efficient therapy: the slow elimination facilitates maintaining a stable plasma concentration at a non-toxic, effective level and the prolonged effect may be expected to result in better compliance of the subject to be treated with the prescribed medication.

Compound	activation at 0.001 µM ([1]; 1 nM compound) [%]	activation at 0.1 µM ([1]; 100 nM compound) [%]	Ratio 15/60 (plasma level 15 min / 60 min) [2]	concentration at 15 min [2] [ng/mL]	concentration at 60 min [2] [ng/mL]	% MT1 at 1 nM (agonism percentage) ([1]; 1 nM compound) [%]	% MT1 at 100 nM (agonism percentage) ([1]; 100 nM compound) [%]
CC1Cc2c(N3CC[C@H](NC(=O)C(F)(F)F)C3)ccc(F)c2O1 (stereo partly drawn) [Example 2, 2,2,2-trifluoro-N-((3S)-1-(7-fluoro-2-methyl-2,3-dihydrobenzofuran-4-yl)pyrrolidin-3-yl)acetamide]	32	79	–	–	–	–	–
CC(C)CC(=O)N[C@H]1CCN(c2cccc3c2CC(C)O3)C1 (stereo partly drawn) [Example 18, 3-methyl-N-((3S)-1-(2-methyl-2,3-dihydrobenzofuran-4-yl)pyrrolidin-3-yl)butanamide]	28	82	–	–	–	–	–
CCC(=O)NCC[C@@H]1CCc2ccc3c(c21)CCO3 [Ramelteon, N-[2-[(8S)-1,6,7,8-tetrahydro-2H-indeno[5,4-b]furan-8-yl)ethyl]propionamide, reference compound]	45	118	3.94	280	71	–	–
CC1Cc2c(cccc2N2CC[C@H](NC(=O)C(F)(F)F)C2)O1 (stereo partly drawn) [Example 14, 2,2,2-trifluoro-N-((3S)-1-(2-methyl-2,3-dihydrobenzofuran-4-yl)pyrrolidin-3-yl)acetamide]	8	79	–	–	–	–	–
CC1Cc2c(cccc2N2CC[C@H](NC(=O)C(C)C)C2)O1 (stereo partly drawn) [Example 16, N-((3S)-1-(2-methyl-2,3-dihydrobenzofuran-4-yl)pyrrolidin-3-yl)isobutyramide]	6	76	–	–	–	–	–
CC1Cc2c(N3CC[C@H](NC(=O)C(C)F)C3)ccc(F)c2O1 (stereo partly drawn) [Example 4, 2-fluoro-N-((3S)-1-(7-fluoro-2-methyl-2,3-dihydrobenzofuran-4-yl)pyrrolidin-3-yl)propanamide]	44	98	–	–	–	–	–
CC1Cc2c(cccc2N2CC[C@H](NC(=O)C3CC3)C2)O1 (stereo partly drawn) [Example 17, N-((3S)-1-(2-methyl-2,3-dihydrobenzofuran-4-yl)pyrrolidin-3-yl)cyclopropanecarboxamide]	6	79	0.47	17	36	–	–
CCOC(=O)N[C@H]1CCN(c2ccc(F)c3c2CC(C)O3)C1 (stereo partly drawn) [Example 11, Ethyl (3S)-1-(7-fluoro-2-methyl-2,3-dihydrobenzofuran-4-yl)pyrrolidin-3-ylcarbamate]	28	73	–	–	–	–	–
CCC(=O)N[C@H]1CCN(c2cccc3c2CC(C)O3)C1 (stereo partly drawn) [Example 15, N-((3S)-1-(2-methyl-2,3-dihydrobenzofuran-4-yl)pyrrolidin-3-yl)propionamide]	18	92	–	–	–	–	–
CC1Cc2c(N3CC[C@H](NC(=O)C(C)C)C3)ccc(F)c2O1 (stereo partly drawn) [Example 6, N-((3S)-1-(7-fluoro-2-methyl-2,3-dihydrobenzofuran-4-yl)pyrrolidin-3-yl)isobutyramide]	24	75	–	–	–	–	–
CCC(=O)N[C@H]1CCN(c2cccc3c2CC(CC)O3)C1 (stereo partly drawn) [Example 20, N-((3S)-1-(2-ethyl-2,3-dihydrobenzofuran-4-yl)pyrrolidin-3-yl)propionamide]	26	88	1.80	106	59	–	–
CCCC1Cc2c(cccc2N2CC[C@H](NC(=O)CC)C2)O1 (stereo partly drawn) [Example 21, N-((3S)-1-(2-propyl-2,3-dihydrobenzofuran-4-yl)pyrrolidin-3-yl)propionamide]	15	78	1.59	59	37	–	–
COC(=O)N[C@H]1CCN(c2ccc(F)c3c2CC(C)O3)C1 (stereo partly drawn) [Example 10, Methyl (3S)-1-(7-fluoro-2-methyl-2,3-dihydrobenzofuran-4-yl)pyrrolidin-3-ylcarbamate]	36	89	–	–	–	–	–
CC(=O)N[C@H]1CCN(c2cccc3c2CC(C)O3)C1 (stereo partly drawn) [Example 13, N-((3S)-1-(2-methyl-2,3-dihydrobenzofuran-4-yl)pyrrolidin-3-yl)acetamide]	17	91	2.29	433	189	–	–
CCNC(=O)N[C@H]1CCN(c2ccc(F)c3c2CC(C)O3)C1 (stereo partly drawn) [Example 12, 1-Ethyl-3-((3S)-1-(7-fluoro-2-methyl-2,3-dihydrobenzofuran-4-yl)pyrrolidin-3-yl)urea]	18	90	–	–	–	–	–
CCCCC(=O)N[C@H]1CCN(c2ccc(F)c3c2CC(C)O3)C1 (stereo partly drawn) [Example 8, N-((3S)-1-(7-fluoro-2-methyl-2,3-dihydrobenzofuran-4-yl)pyrrolidin-3-yl)pentanamide]	31	89	–	–	–	–	–
CCC1Cc2c(cccc2N2CC[C@H](NC(C)=O)C2)O1 (stereo partly drawn) [Example 19, N-((3S)-1-(2-ethyl-2,3-dihydrobenzofuran-4-yl)pyrrolidin-3-yl)acetamide]	23	81	–	–	–	–	–
CC1Cc2c(N3CC[C@H](NC(=O)C4CC4)C3)ccc(F)c2O1 (stereo partly drawn) [Example 7, N-((3S)-1-(7-fluoro-2-methyl-2,3-dihydrobenzofuran-4-yl)pyrrolidin-3-yl)cyclopropanecarboxamide]	22	80	0.58	5.1	8.8	–	–
CCCC(=O)N[C@H]1CCN(c2ccc(F)c3c2CC(C)O3)C1 (stereo partly drawn) [Example 5, N-((3S)-1-(7-fluoro-2-methyl-2,3-dihydrobenzofuran-4-yl)pyrrolidin-3-yl)butyramide]	32	91	–	–	–	–	–
CC(=O)N[C@H]1CCN(c2ccc(F)c3c2CC(C)O3)C1 (stereo partly drawn) [Example 1, N-((3S)-1-(7-fluoro-2-methyl-2,3-dihydrobenzofuran-4-yl)pyrrolidin-3-yl)acetamide]	19	73	1.03	56.8	55.4	–	–
COc1ccc2[nH]cc(CCNC(C)=O)c2c1 [Melatonin, reference compound]	–	–	3.49	255	73	42	101
CCC(=O)N[C@H]1CCN(c2ccc(F)c3c2CC(C)O3)C1 (stereo partly drawn) [Example 3, N-((3S)-1-(7-fluoro-2-methyl-2,3-dihydrobenzofuran-4-yl)pyrrolidin-3-yl)propionamide]	30	88	1.74	113	64.9	–	–
CCC(C)C(=O)N[C@H]1CCN(c2ccc(F)c3c2CC(C)O3)C1 (stereo partly drawn) [Example 9, N-((3S)-1-(7-fluoro-2-methyl-2,3-dihydrobenzofuran-4-yl)pyrrolidin-3-yl)-2-methylbutanamide]	17	70	–	–	–	–	–
